# Starred links: 1 amine or outer side, 2 acyl side, 3 side chain; linkers in the order of their positions; H or OH if unused. Positions of bridges follow the written chain, without caps; N, C: chain ends. Non-standard residues stand in square brackets, D forms with d. Residues, ends and D or L forms follow the SMILES beside them. Trimesoyl = O=C(c1cc(C(=O)[*:2])cc(C(=O)[*:3])c1)[*:1]; d2Nal = N[C@H](Cc1ccc2ccccc2c1)C(=O)O; Dap = NC[C@H](N)C(=O)O
# Columns and labels:
# THP-1 cells = experiment: CellTiter-Glo luminescent cell viability assay; conditions: 2-day treatment
# E. chaffeensis = E. chaffeensis infection of RF/6A cells (numbers and sizes of morulae); assay type: cell-based, Ehrlichia chaffeensis; conditions: 10 μM, 2 days
# Etf-1-GFP = experiment: mitochondrial localization of ectopically expressed Etf-1-GFP in RF/6A cells; assay type: cell-based, Ehrlichia chaffeensis; conditions: 10 μM, 2 days
# Experimental: For mitochondria localization analysis, RF/6A cells were seeded onto a cover glass in a 12-well plate for 3 h, then infected with E. chaffeensis at ∼30 MOI. Alternatively, cells were transfected with Etf-1-GFP or Etf-1-DsRed plasmids using Fugene HD (Promega) or by electroporation at 100 V and 1,000 µF using the Gene Pulser Xcell System (BioRad) according to the manufacturers’ instructions ([16]). […] To examine the roles of macrocyclic peptides on Etf-1 localization on E. chaffeensis inclusions, infected RF/6A cells were treated with 10 μM peptides at 3 h pi for 2 days. At 2 days pi or pt, cells were washed 3 times with PBS, then fixed in 4% PFA for 20 min. Native Etf-1 and mitochondria marker cytochrome C proteins were labeled with rabbit anti-Etf-1 IgG and mouse anti-cytochrome C, then with AF488-conjugated goat anti-rabbit and anti-mouse secondary antibodies in PGS (PBS with 0.1% gelatin and 0.1% saponin) for 1 h each at RT. Host-cell and Ehrlichial DNAs were stained with 300 nM DAPI, and fluorescence with differential interference contrast images were observed and captured with a DeltaVision deconvolution microscope (Applied Precision, Issaquah, WA, USA). Percentages of Etf-1 protein colocalization with macrocyclic peptides or E. chaffeensis inclusions were quantified by counting 10–20 cells per group from three independent experiments.
# BECN1 binding to Etf-1 = experiment: streptavidin magnetic beads pull-down of BECN1 with biotin-Etf-1, Western blot; assay type: biochemical; conditions: 10 µM peptide
# [1] = serum stability assay (UPLC); assay type: in vitro ADME; conditions: 25% (v/v) in DPBS; 25% human serum, 37°C, after 22 h; read-out: degradation
# Experimental: In comparison, the linear peptide Tat (cell-permeable peptide of HIV) was completely degraded within the first 120 min of incubation (Fig. 4B).
# Human serum was diluted to 25% (v/v) in sterile DPBS and equilibrated at 37°C for 15 min. Peptides were added to the diluted serum to a final concentration of 20 μM and incubated at 37°C with gentle mixing. At designated time points, 30 μL aliquots were withdrawn and mixed with 30 μL of 15% trichloroacetic acid in MeOH (w/v) and 30 μL of MeCN and stored at 4°C overnight to completely precipitate the serum proteins. Next, each aliquot was centrifuged (15,000g, 5 min, 4°C) and 14 μL of the supernatant was injected in an UPLC equipped with an analytical Waters Acquity UPLC BEH C18 column (1.7 μm, 2.1 mm I.D., 100 mm length) and an inline UV-Vis detector and a single quadrupole mass detector. The column was eluted with a linear gradient of 20–50% MeCN in ddH2O containing 0.1% TFA. A UV/Vis detector at 214 nm and the mass spec quantifying the ion counts corresponding to the [M + 3H]^3+ ion of the analytes were used to analyze the samples. The area under the peak of interest was obtained by integration, normalized to that of the peptide at t = 0, and plotted as a function of the incubation time to determine the serum half-life of the peptide.
smiles,measurement,setting,value
"CC(C)C[C@H]1NC(=O)[C@H](CO)NC(=O)[C@H]2CCCN2C(=O)[C@H](CCC(N)=O)NC(=O)[C@H](Cc2c[nH]cn2)NC(=O)[C@H](Cc2ccc(O)cc2)NC(=O)c2cc3cc(c2)C(=O)NC[C@H](NC1=O)C(=O)N[C@@H](Cc1ccccc1)C(=O)N[C@H](Cc1ccc2ccccc2c1)C(=O)N[C@H](CCCNC(=N)N)C(=O)N[C@@H](CCCNC(=N)N)C(=O)N[C@H](CCCNC(=N)N)C(=O)N[C@@H](CCCNC(=N)N)C(=O)N[C@H](C(N)=O)CNC3=O [Peptide B7, TMA-Tyr-His-Gln-pro-Ser-leu-Dap-Phe-nal-arg-Arg-arg-Arg-Dap] (YHQ[dP]S[dL][Dap]F[d2Nal][dR]R[dR]R[Dap]-NH2; linker N-7-14 via Trimesoyl)",cell viability,THP-1 cells; 20 μM,slightly reduced the cell viability
same,cytotoxicity,THP-1 cells; up to 10 μM,no cytotoxicity
same,inhibition of E. chaffeensis infection,E. chaffeensis,significantly inhibited
same,effect on mitochondrial localization of Etf-1-GFP,Etf-1-GFP,neither peptide B7 nor C17 affected mitochondrial localization
same,disruption of BECN1 binding to Etf-1,BECN1 binding to Etf-1; compared to DMSO control,disrupted BECN1 binding to Etf-1
same,BECN1/Etf-1 Ratio,"BECN1 binding to Etf-1; band intensities, DMSO control set as 1, Fig. 8B",0.20
same,"metabolised at 22 h, 20 µM",[1],< 20%
